Legend:
Assay type in all cases: in vivo
[1] = tested on: tetraploidem Roggen Gibrid 67; assay: Field test of gametocidal activity, tetraploid rye Gibrid 67; conditions: period V, 1% aqueous emulsion, 10 kg/ha; for Prozentsatz des Ansetzens von Samen bei freier Bestäubung: control = 100
Source text: (§1) Die gametozide Aktivität der erfindungsgemäßen Sterilisationsmittel war in Feldversuchen in verschiedenen bodenklimatischen Zonen mit Teilstücken von 10 m^2 Größe in dreibis viermaliger Wiederholung festgestellt. Jedes Sterilisationsmittel wurde mindenstens 5 Jahre lang geprüft.
(§2) Die Entwicklung der Perioden der Organogenese wird zytologisch überwacht. Die Behandlung von Pflanzen mit dem Sterilisationsmittel erfolgt am Anfang der fünften Periode der Organogenese nach Kupermann.
(§3) Mit dem Ährenschieben verwirklicht man die Isolierung von Hauptähren und anderen Stockwerken in Pergametbeuteln. Bei Weizen und Tritikale werden Einzelisolatoren benutzt. Bei Roggen schließt man je 1 Ähre von […] verschiedenen nebeneinander befindlichen Pflanzen unter einen gemeinsamen Isolator ein. Bei Hirse wird jede Rispe getrennt isoliert. Der Sterilitätsprozentsatz (X) für Weizen, Roggen, Tritikale und Hirse wird nach der Formel [formula] ermittelt.
(§4) Die Kornzahl in nicht isolierten Ähren von Kontrollpflanzen wird bedingt für 100 % Ansetzen bei freier Bestäubung angenommen.
(§5) Um zuverlässige Angaben zu erhalten, verwendet man 20 bis 25 Isolatoren je Wiederholung für Weizen und Tritikale, 10 bis 15 Isolatoren jeder Wiederholung für Roggen und Hirse.
(§6) Pflanzen von tetraploidem Roggen Gibrid 67 werden in der V.Periode der Organogenese mit einer l%igen wäßrigen Emulsion von 1,2,3-Tribrompropan, 1,2-Dibrompropan bzw. 1,2-Dibrom-3-chlorpropan behandelt. Die Emulsion enthält 0,5 Masse% C12-C14-Kalziumalkylbenzolsulfonat und 0,01 Masse% Dimethylsulfoxid. Der Verbrauch an Präparat beträgt 10 kg/ha. Die Prüfergebnisse sind in der Tabelle 10 angegeben. Die gleichen Ergebnisse sind bei der Behandlung von tetraploidem Roggen Gibrid 67 in der VI. Periode der Organogenese erhalten.

[2] = tested on: tetraploidem Roggen Ukrainskaya tetra; assay: Field test of gametocidal activity, tetraploid rye Ukrainskaya tetra; conditions: period V, 1% aqueous emulsion, 6 kg/ha in 600 l water; for Prozentsatz des Ansetzens von Samen bei freier Bestäubung: control = 100
Source text: as §1, §2, §3, §4, §5
Pflanzen von tetraploidem Roggen Ukrainskaya tetra werden in der V.Periode der Organogenese (nach Kupermann) mit einer 1%igen wäßrigen Emulsion von 1,2,3-Tribrompropan, 1,2-Dibrompropan bzw. 1,2-Dibrom-3-chlorpropan behandelt. Die Emulsion enthält 0,5 Masse% C12-C14-Kalzium- alkylbenzolsulfonat und 0,01 Masse% Tetrahydrofuran. Der Verbrauch an Präparat beträgt 6 kg/ha bei 600 1 Wasserdurchsatz. Als Kontrolle dienen Pflanzen, behandelt mit dem Verdünner ohne Sterilisationsmittel. Die Prüfergebnisse sind in der Tabelle 8 angegeben. Die gleichen Ergebnisse sind bei der Behandlung von tetraploidem Roggen Ukrainskaya in der VI. Periode der Organogenese erhalten.

[3] = tested on: Sonnenblume Sorte Peredovik; assay: Field test of pollen sterilisation, sunflower Peredovik
Source text: as §1, §2
Zur Kontrolle der chemischen Sterilisation des Sonnenblumenpollens werden für jede Verbindung 45 behandelte Pflanzen je Wiederholung benutzt, wobei 15 Pflanzen zwecks Selbstbestäubung des Blütenkörbchens isoliert werden, 15 Pflanzen mit einem Pollengemisch, gesammelt von 20 bis 25 behandelten isolierten Körbchen, bestäubt werden, und 15 Pflanzen für freie Bestäubung gelassen werden, damit das Ansetzen von Achänen mit dem Pollen der Vaterform kontrolliert worden kann.
Man beurteilt die Pollensterilität von Pflanzen der Sonnenblume nach der Pollenfertilität und -keimfähigkeit, nach den morphologischen Besonderheiten von Spermien und nach der Fähigkeit von Achänen […] bei der Bestäubung der behandelten isolierten Pflanzen mit dem Pollen der unbehandelten väterlichen Form. Die Lebensfähigkeit der Eizelle wird nach der Samenbildung bei behandelten Pflanzen bei freier Bestäubung der väterlichen Form bestimmt.
Pflanzen der Sonnenblume Sorte Peredovik werden in der V. Periode der Organogenese (nach Kupermann) mit einer 0,2%igen wäßrigen Emulsion von 1,1,3-Tribrompropan, 1,2--Dibrompropan behandelt. Die Emulsion enthält 0,5 Masse% C12-C14-Kalziumalkylbenzolsulfonat und 0,01 Masse% Dimethylsulfoxid als Adjuvans. Der Verbrauch an Präparat beträgt 1,2 kg/ha bei 600 1 Wasserdurchsatz. Die Prüfergebnisse sind in der Tabelle 16 angegeben. Die gleichen Ergebnisse sind bei der Behandlung der Sonnenblume Sorte Peredovik in der VI. Periode der Organogenese erhalten.
Man verfährt analog den Beispielen 85 und 86. Als Sterilisationsmittel dient eine 0,1%ige wäßrige Emulsion von 1,2-Dibrom-3-chlorpropan. Der Verbrauch an Präparat beträgt […]. Die Prüfergebnisse sind in der Tabelle 16 angegeben.

[4] = tested on: tetraploidem Roggen Jubileinaya; assay: Field test of gametocidal activity, tetraploid rye Jubileinaya; conditions: period V, 1% aqueous emulsion, 8 kg/ha in 800 l water; for Prozentsatz des Ansetzens Samen bei freier Bestäubung: control = 100
Source text: as §1, §2, §3, §4, §5
as §6, with “Jubileinaya” for “Gibrid 67”, “V. Periode” for “V.Periode”, “1%igen” for “l%igen”, “Dodezylsulfat.” for “Dimethylsulfoxid.”, “8 kg/ha bei 800 1 Wasserdurchsatz.” for “10 kg/ha.”, “9” for “10”

[5] = tested on: tetraploidem Roggen Belta; assay: Field test of gametocidal activity, tetraploid rye Belta; conditions: period V, 1% aqueous emulsion, 6 kg/ha in 600 l water; for Prozentsatz des Ansetzens von Samen bei freier Bestäubung: control = 100
Source text: as §1, §2, §3, §4, §5
Pflanzen von tetraploidem Roggen Belta werden in der V.Periode der Organogenese (nach Kupermann) mit einer 1%igen wäßrigen Emulsion von 1,1,3-Tribrompropan, 1,1,3--Tribrom-4-chlorbutan, 1,1,2,3-Tetrabrompropan, 1,2,3-Tribrompropan, 1,1,3-Tribrom-3-chlorpropan bzw. 1,2-Dibrom--3-chlorpropan behandelt.
Die Emulsion enthält 0,5 Masse% C12-C14-Kalziumalk^yl-benzolsulfonat und 0,01 Masse% Dimethylsulfoxid. Der Verbrauch an Präparat beträgt 6 kg/ha bei 600 1 Wasserdurchsatz.Die Prüfergebnisse sind in der Tabelle 7 angegeben. Die gleichen Ergebnisse sind bei der Behandlung von tetraploidem Roggen Belta in der VI. Periode der Organogenese erhalten.

[6] = tested on: diploidem Roggen Gibrid 1864/79; assay: Field test of gametocidal activity, diploid rye Gibrid 1864/79; conditions: period V, 1% aqueous emulsion, 6 kg/ha in 600 l water; for Prozentsatz des Ansetzens von Samen bei freier Bestäubung: control = 100
Source text: as §1, §2, §3, §4, §5
Pflanzen von diploidem Roggen Gibrid 1864/79 werden in der V. Periode der Organogenese mit einer l%igen wäßrigen Emulsion von 1,2,3-Tribrompropan, 1,2-Dibrompropan, 1,1,1,3--Tetrabromheptan, 1,1,3-Tribromheptan behandelt. Die Emulsion enthält 0,5 Masse% C12-C14-Kalziumalkylbenzolsulfonat und 0,01 Masse% Äthylenglykol. Der Verbrauch an Präparat beträgt 6 kg/ha bei 600 1 Wasserdurchsatz. Die Prüfergebnisse sind in der Tabelle 12 angegeben. Die gleichen Ergebnisse sind bei der Behandlung von diploidem Roggen Gibrid 1864/79 in der VI. Periode der Organogenese erhalten.

[7] = 0.1% aqueous emulsion, 1.0 kg/ha
[8] = period V, 0.2% aqueous emulsion, 1.2 kg/ha in 600 l water

Row | Structure (SMILES) | Kornzahl der Ähre bei freier Bestäubung [1] | Kornzahl der Ähre im Isolator [1] | Prozentsatz der Sterilität [1] | Prozentsatz des Ansetzens von Samen bei freier Bestäubung [1] | Kornzahl der Ähre bei freier Bestäubung [2] | Kornzahl der Ähre unter Isolator [2] | Prozentsatz der Sterilität [2] | Prozentsatz des Ansetzens von Samen bei freier Bestäubung [2] | Kornzahl der Ähre bei freier Bestäubung [4] | Kornzahl der Ähre unter Isolator [4] | Prozentsatz der Sterilität [4] | Prozentsatz des Ansetzens Samen bei freier Bestäubung [4] | Kornzahl der Ähre bei freier Bestäubung [5] | Kornzahl der Ähre im Isolator [5] | Prozentsatz der Sterilität [5] | Prozentsatz des Ansetzens von Samen bei freier Bestäubung [5] | Kornzahl der Ähre bei freier Bestäubung [6] | Kornzahl der Ähre unter Isolator [6] | Prozentsatz der Sterilität [6] | Prozentsatz des Ansetzens von Samen bei freier Bestäubung [6] | also measured
1 | ClCC(Br)CBr (stereo not shown) [Beispiel 7, 1,2-Dibrom-3-chlorpropan] | 45,2 | 0,0 | 100,0% | 91,3% | 45,8 | 0,6 | 98,8% | 88,7% | 50,2 | 0,4 | 99,2% | 95,2% | 37,4 | 0,0 | 100,0% | 84,6% |  |  |  |  | Ansetzen bei freier Bestäubung in % [3, 7]: 81,4%; Ansetzen im Isolator bei Pollengemischbestäubung in % [3, 7]: 0,0%; Pollenleistung in % [3, 7]: 0,0%; Pollensterilität in % [3, 7]: 100,0%
2 | BrCCC(Br)Br [Beispiel 1, 1,1,3-Tribrompropan] |  |  |  |  |  |  |  |  |  |  |  |  | 34,5 | 1,2 | 97,0% | 78,1% |  |  |  |  | Ansetzen bei freier Bestäubung in % [3, 8]: 78,7%; Ansetzen im Isolator bei Pollengemischbestäubung in % [3, 8]: 0,0%; Pollenleistung in % [3, 8]: 30,0%; Pollensterilität in % [3, 8]: 100,0%
3 | CCCCC(Br)CC(Br)Br (stereo not shown) [Beispiel 10, 1,1,3-Tribromheptan] |  |  |  |  |  |  |  |  |  |  |  |  |  |  |  |  | 52,6 | 0,0 | 100,0% | 109,8% | 
4 | CC(Br)CBr (stereo not shown) [Beispiel 5, 1,2-Dibrompropan] | 42,7 | 0,2 | 99,5% | 86,3% | 47,5 | 0,3 | 99,4% | 92,1% | 48,1 | 0,0 | 100,0% | 91,2% |  |  |  |  | 46,4 | 0,0 | 100,0% | 97,1% | Ansetzen bei freier Bestäubung in % [3, 8]: 84,5%; Ansetzen im Isolator bei Pollengemischbestäubung in % [3, 8]: 0,0%; Pollenleistung in % [3, 8]: 13,1%; Pollensterilität in % [3, 8]: 100,0%
5 | BrCC(Br)CBr [Beispiel 4, 1,2,3-Tribrompropan] | 40,6 | 0,6 | 98,6% | 82,0% | 48,6 | 0,0 | 100,0% | 94,2% | 47,6 | 0,1 | 99,8% | 90,3% | 42,0 | 0,0 | 100,0% | 95,0% | 42,1 | 0,0 | 100,0% | 88,0% | 
6 | CCCCC(Br)CC(Br)(Br)Br (stereo not shown) [Beispiel 9, 1,1,1,3-Tetrabromheptan] |  |  |  |  |  |  |  |  |  |  |  |  |  |  |  |  | 49,2 | 0,0 | 100,0% | 103,0% | 
